Laboratory results taken from patent US20240166654A1, “RUXOLITINIB CRYSTAL AND PHARMACEUTICAL COMPOSITION THEREOF” (ZHEJIANG AUSUN PHARMACEUTICAL CO., LTD., priority 2022, published 2024).

What was measured:
[1] = Storage of crystal in polyethylene self-sealing bag, XRPD pattern; type: physicochemical; details: 30-35° C. for 3 months, transparent polyethylene self-sealing bag, 10.0 g
Procedure: In addition, 10.0 g of crystal of compound of formula I of Example 1 was placed in a transparent polyethylene self-sealing bag and allowed to stand at 30-35° C. for 3 months.

[2] = Stability of solid forms in stabilization chamber (appearance or XRPD versus initial solid form); type: physicochemical; details: for Physical stability (solid form): 3.0 g sample, appearance or XRPD compared with initial solid form
Procedure: 3.0 g of ruxolitinib free base in different solid forms was stored in a stabilization chamber, and placed in the condition that the temperature and humidity were controlled to at 25° C., 60% RH, and 40° C., 75% RH for […], respectively. The samples were analyzed by appearance or XRPD to check its solid form and compared with its initial solid form.

## N#CC[C@H](C1CCCC1)n1cc(-c2ncnc3[nH]ccc23)cn1 [Compound of Formula I of Example 1, ((3R)-3-cyclopentyl-3-[4-(7H-pyrrolo[2,3-d]pyrimidin-4-yl)pyrazol-1-yl]propionitrile)·2H2O]
[1]
  Stability of crystalline form by XRPD: remains stable
[2]; 25° C., 60% RH for 2 hours and 40° C., 75% RH for 8 hours, summary of Table 4
  Stability compared with ruxolitinib foam and amorphous form of Example 5: better stability
[2]; 25° C./60%-RH, 2 hours
  Physical stability (solid form): No change of solid form
[2]; 40° C./75%-RH, 8 hours
  Physical stability (solid form): No change of solid form

## N#CC[C@H](C1CCCC1)n1cc(-c2ncnc3[nH]ccc23)cn1 [Foam]
[2]; 25° C./60%-RH, 2 hours
  Physical stability (hygroscopicity observation): hygroscopic
  Physical stability (solid form): Change of solid form,
[2]; 40° C./75%-RH, 8 hours
  Physical stability (hygroscopicity observation): hygroscopic
  Physical stability (solid form): Change of solid form,
